Measurements published in patent US10988523B2, “Modified lipidated Relaxin B chain peptides and their therapeutic use” (Sanofi, priority 2018, dated 2021).
*1 amine or outer side, *2 acyl side, *3 side chain or, on linkers, in order; H or OH if unused. Where a SMILES comes first, the peptide text is derived from it. Side-chain parts run from the residue outwards. [ ]: non-standard residue; d: D form. The star is where a group is joined. X5 = CCCCCCCCCCCCCCCC(=O)N[C@@H](CCC(=O)NCCCC[C@H](NC(=O)CC[C@H](NC(=O)CC[C@H](NC(=O)CC[C@H](NC(=O)CCC(=O)NCCCOCCOCCOCCCNC(=O)CCC(=O)NCCCOCCOCCOCCCN*)C(=O)O)C(=O)O)C(=O)O)C(N)=O)C(=O)O; Arachidoyl = CCCCCCCCCCCCCCCCCCCC(=O)*; γGlu = O=C(O)[C@H](CCC(=O)[*:2])N[*:1]; 1Nal = N[C@@H](Cc1cccc2ccccc12)C(=O)O; Pentadecanoyl = CCCCCCCCCCCCCCC(=O)*; Stearoyl = CCCCCCCCCCCCCCCCCC(=O)*; PEG4 = NCCOCCOCCOCCOCCC(=O)O; αMeK = C[C@](N)(CCCCN)C(=O)O; Nle = CCCC[C@H](N)C(=O)O; AEEA = NCCOCCOCC(=O)O; Aib = CC(C)(N)C(=O)O

Target: T1, RXFP1 (Homo sapiens, UniProt Q9HBX9)
T1 construct: OVCAR5 cells expressing endogenous RXFP1; endogenous in cells; host or cells: OVCAR5 cells
T1 sequence (Q9HBX9 1-757): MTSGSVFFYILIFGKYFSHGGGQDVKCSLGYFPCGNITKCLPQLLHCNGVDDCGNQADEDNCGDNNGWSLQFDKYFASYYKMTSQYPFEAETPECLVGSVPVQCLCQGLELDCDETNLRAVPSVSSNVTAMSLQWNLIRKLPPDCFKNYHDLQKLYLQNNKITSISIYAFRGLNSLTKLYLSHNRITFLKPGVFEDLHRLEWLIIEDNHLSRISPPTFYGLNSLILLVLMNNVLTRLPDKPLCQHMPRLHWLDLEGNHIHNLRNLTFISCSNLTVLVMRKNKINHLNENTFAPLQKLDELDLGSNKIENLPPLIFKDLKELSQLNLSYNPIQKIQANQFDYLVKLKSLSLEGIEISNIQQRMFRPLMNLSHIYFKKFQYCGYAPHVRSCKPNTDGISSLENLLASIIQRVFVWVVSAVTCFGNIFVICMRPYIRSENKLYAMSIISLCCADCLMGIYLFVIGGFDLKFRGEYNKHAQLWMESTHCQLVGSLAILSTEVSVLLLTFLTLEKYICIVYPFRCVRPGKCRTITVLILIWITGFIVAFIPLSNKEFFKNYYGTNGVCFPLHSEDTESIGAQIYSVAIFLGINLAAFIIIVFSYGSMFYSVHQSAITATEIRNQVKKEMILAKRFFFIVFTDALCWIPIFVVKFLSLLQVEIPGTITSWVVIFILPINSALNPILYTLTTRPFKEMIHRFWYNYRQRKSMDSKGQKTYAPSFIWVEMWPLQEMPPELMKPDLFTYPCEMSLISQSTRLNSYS
Test: OVCAR5 cAMP assay (HTRF), RXFP1 agonist activity
Assay type: cell-based
Conditions: for EC50: OVCAR5 cells, cAMP HTRF, read-out: EC50 (nM), OVCAR 5 cells (cAMP); for Emax: OVCAR-5, maximal cAMP relative to H2-relaxin maximum (100%), read-out: EMax, OVCAR 5 cells (cAMP)
Summary of the method: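 cAMP accumulation readout: after 1 mM IBMX for 40 min, endogenous-RXFP1 OVCAR5 cells got rising peptide concentrations without FCS, 30 min, 37° C, then lysis with HTRF cAMP reagents. Nonlinear regression gave EC50; Emax expressed relative to H2-relaxin maximum, same occasion.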

SMILES | EC50 [nM] | Emax [%]
CCCCCCCCCCCCCCCC(=O)N[C@@H](CCC(=O)NCCCC[C@H](NC(=O)CC[C@H](NC(=O)CC[C@H](NC(=O)CC[C@H](NC(=O)CCC(=O)NCCCOCCOCCOCCCNC(=O)CCC(=O)NCCCOCCOCCOCCCNC(=O)[C@H](CCCCNC(C)=O)NC(=O)[C@H](CCCCN)NC(=O)[C@H](CCCNC(=N)N)NC(=O)[C@](C)(CCCCN)NC(=O)[C@H](CO)NC(=O)[C@H](Cc1ccccc1)NC(=O)[C@@H](NC(=O)[C@H](CO)NC(=O)[C@H](CCCC)NC(=O)CNC(=O)[C@H](CCC(=O)O)NC(=O)C(C)(C)NC(=O)C(C)(C)NC(=O)[C@@H](NC(=O)[C@H](CCCCNC(C)=O)NC(=O)[C@H](C)NC(=O)[C@H](CCCNC(=N)N)NC(=O)[C@@H](NC(=O)[C@H](CCCCN)NC(=O)[C@H](CCC(=O)O)NC(=O)[C@H](CCCNC(=N)N)NC(=O)CNC(=O)[C@H](CCC(=O)O)NC(=O)[C@H](CC(C)C)NC(C)=O)C(C)C)[C@@H](C)CC)[C@@H](C)O)C(=O)O)C(=O)O)C(=O)O)C(N)=O)C(=O)O [compound 146] (Ac-LEGREKVRAK(Ac)I[Aib][Aib]EG[Nle]STFS[αMeK]RKK(Ac)-X5) | 0.02 | 89
CCCCCCCCCCCCCCC(=O)N[C@@H](CCC(=O)N[C@@H](CCC(=O)NCCCC[C@H](NC(=O)CC[C@H](NC(=O)CC[C@H](NC(=O)COCCOCCNC(=O)COCCOCCNC(=O)COCCOCCNC(=O)COCCOCCNC(=O)[C@H](CCCCNC(C)=O)NC(=O)[C@H](C)NC(=O)[C@H](CCCNC(=N)N)NC(=O)[C@](C)(CCCCN)NC(=O)[C@H](CO)NC(=O)[C@H](Cc1ccccc1)NC(=O)[C@@H](NC(=O)[C@H](CO)NC(=O)[C@H](CCC(N)=O)NC(=O)CNC(=O)[C@H](CCC(=O)O)NC(=O)C(C)(C)NC(=O)C(C)(C)NC(=O)[C@@H](NC(=O)[C@H](CCCCNC(C)=O)NC(=O)[C@H](C)NC(=O)[C@H](CCCNC(=N)N)NC(=O)[C@@H](NC(=O)[C@H](CCCCN)NC(=O)[C@H](CCC(=O)O)NC(=O)[C@H](CCCNC(=N)N)NC(=O)CNC(=O)[C@H](CCC(=O)O)NC(=O)[C@H](CC(C)C)NC(C)=O)C(C)C)[C@@H](C)CC)[C@@H](C)O)C(=O)O)C(=O)O)C(N)=O)C(=O)O)C(=O)O [compound 186] (Ac-LEGREKVRAK(Ac)I[Aib][Aib]EGQSTFS[αMeK]RAK(Ac)[AEEA][AEEA][AEEA][AEEA][γGlu][γGlu]K([γGlu-γGlu-Pentadecanoyl])-NH2) | 0.18 | 100
CCCCCCCCCCCCCCCCCCCC(=O)N[C@@H](CCC(=O)N[C@@H](CCC(=O)N[C@@H](CCC(=O)NCCOCCOCC(=O)NCCOCCOCC(=O)NCCOCCOCC(=O)NCCCC[C@H](NC(=O)[C@H](CCCCNC(C)=O)NC(=O)[C@H](CCCCN)NC(=O)[C@H](CCCNC(=N)N)NC(=O)C(C)(C)NC(=O)[C@H](CO)NC(=O)[C@H](Cc1c[nH]c2ccccc12)NC(=O)[C@@H](NC(=O)[C@H](CO)NC(=O)[C@H](CCCC)NC(=O)CNC(=O)[C@H](CCC(=O)O)NC(=O)C(C)(C)NC(=O)C(C)(C)NC(=O)[C@@H](NC(=O)[C@H](CCCCNC(C)=O)NC(=O)[C@H](C)NC(=O)[C@H](CCCNC(=N)N)NC(=O)[C@@H](NC(=O)[C@H](CCCCN)NC(=O)[C@H](CCC(=O)O)NC(=O)[C@H](CCCNC(=N)N)NC(=O)CNC(=O)[C@H](CCC(=O)O)NC(=O)[C@H](CC(C)C)NC(C)=O)C(C)C)[C@@H](C)CC)[C@@H](C)O)C(N)=O)C(=O)O)C(=O)O)C(=O)O [compound 171] (Ac-LEGREKVRAK(Ac)I[Aib][Aib]EG[Nle]STWS[Aib]RKK(Ac)K([AEEA-AEEA-AEEA-γGlu-γGlu-γGlu-Arachidoyl])-NH2) | 0.18 | 83
CCCCCCCCCCCCCCCCCC(=O)N[C@@H](CCC(=O)N[C@@H](CCC(=O)N[C@@H](CCC(=O)NCCCC[C@H](NC(=O)CCOCCOCCOCCOCCNC(=O)[C@H](CCCCNC(C)=O)NC(=O)[C@H](CCCCN)NC(=O)[C@H](CCCNC(=N)N)NC(=O)C(C)(C)NC(=O)[C@H](CO)NC(=O)[C@H](Cc1c[nH]c2ccccc12)NC(=O)[C@@H](NC(=O)[C@H](CO)NC(=O)[C@H](CCCC)NC(=O)CNC(=O)[C@H](CCC(=O)O)NC(=O)C(C)(C)NC(=O)C(C)(C)NC(=O)[C@@H](NC(=O)[C@H](CCCCNC(C)=O)NC(=O)[C@H](C)NC(=O)[C@H](CCCNC(=N)N)NC(=O)[C@@H](NC(=O)[C@H](CCCCN)NC(=O)[C@H](CCC(=O)O)NC(=O)[C@H](CCCNC(=N)N)NC(=O)CNC(=O)[C@H](CCC(=O)O)NC(=O)[C@H](CC(C)C)NC(C)=O)C(C)C)[C@@H](C)CC)[C@@H](C)O)C(N)=O)C(=O)O)C(=O)O)C(=O)O [compound 123] (Ac-LEGREKVRAK(Ac)I[Aib][Aib]EG[Nle]STWS[Aib]RKK(Ac)[PEG4]K([γGlu-γGlu-γGlu-Stearoyl])-NH2) | – | 88
CCCCCCCCCCCCCCC(=O)N[C@@H](CCC(=O)N[C@@H](CCC(=O)N[C@@H](CCC(=O)NCCOCCOCC(=O)NCCOCCOCC(=O)NCCOCCOCC(=O)NCCCC[C@H](NC(=O)[C@H](CCCCNC(C)=O)NC(=O)[C@H](CCCCN)NC(=O)[C@H](CCCNC(=N)N)NC(=O)C(C)(C)NC(=O)[C@H](CO)NC(=O)[C@H](Cc1c[nH]c2ccccc12)NC(=O)[C@@H](NC(=O)[C@H](CO)NC(=O)[C@H](CCCC)NC(=O)CNC(=O)[C@H](CCC(=O)O)NC(=O)C(C)(C)NC(=O)C(C)(C)NC(=O)[C@@H](NC(=O)[C@H](CCCCNC(C)=O)NC(=O)[C@H](C)NC(=O)[C@H](CCCNC(=N)N)NC(=O)[C@@H](NC(=O)[C@H](CCCCN)NC(=O)[C@H](CCC(=O)O)NC(=O)[C@H](CCCNC(=N)N)NC(=O)CNC(=O)[C@H](CCC(=O)O)NC(=O)[C@H](CC(C)C)NC(C)=O)C(C)C)[C@@H](C)CC)[C@@H](C)O)C(N)=O)C(=O)O)C(=O)O)C(=O)O [compound 163] (Ac-LEGREKVRAK(Ac)I[Aib][Aib]EG[Nle]STWS[Aib]RKK(Ac)K([AEEA-AEEA-AEEA-γGlu-γGlu-γGlu-Pentadecanoyl])-NH2) | – | 87
CCCCCCCCCCCCCCCCCC(=O)N[C@@H](CCC(=O)N[C@@H](CCC(=O)N[C@@H](CCC(=O)NCCOCCOCC(=O)NCCOCCOCC(=O)NCCOCCOCC(=O)NCCCC[C@H](NC(=O)[C@H](CCCCN)NC(=O)[C@H](CCCNC(=N)N)NC(=O)C(C)(C)NC(=O)[C@H](CO)NC(=O)[C@H](Cc1cccc2ccccc12)NC(=O)[C@@H](NC(=O)[C@H](CO)NC(=O)[C@H](CCCC)NC(=O)CNC(=O)[C@H](CCC(=O)O)NC(=O)C(C)(C)NC(=O)C(C)(C)NC(=O)[C@@H](NC(=O)[C@H](CCCCNC(C)=O)NC(=O)C(C)(C)NC(=O)[C@H](CCCNC(=N)N)NC(=O)[C@@H](NC(=O)[C@H](CCCCN)NC(=O)[C@H](CCC(=O)O)NC(=O)[C@H](CCCNC(=N)N)NC(=O)CNC(=O)[C@H](CCC(=O)O)NC(=O)[C@H](CC(C)C)NC(C)=O)C(C)C)[C@@H](C)CC)[C@@H](C)O)C(N)=O)C(=O)O)C(=O)O)C(=O)O [compound 80] (Ac-LEGREKVR[Aib]K(Ac)I[Aib][Aib]EG[Nle]ST[1Nal]S[Aib]RKK([AEEA-AEEA-AEEA-γGlu-γGlu-γGlu-Stearoyl])-NH2) | – | 68
